PMC7381729, “A new class of PentixaFor- and PentixaTher-based theranostic agents with enhanced CXCR4-targeting efficiency” (Theranostics, 2020)
Where two headings read alike, the source gives them in different places. Blank lines part the entries; values can stand above or below the compound they belong to. Where a SMILES comes first, the peptide text is derived from it. Side-chain parts run from the residue outwards. [ ]: non-standard residue; d: D form. The star is where a group is joined. DOTA = O=C(O)CN1CCN(CC(=O)O)CCN(CC(=O)*)CCN(CC(=O)O)CC1; dTyr(3-I) = N[C@H](Cc1ccc(O)c(I)c1)C(=O)O; 2Nal = N[C@@H](Cc1ccc2ccccc2c1)C(=O)O; dNMeOrn = CN[C@H](CCCN)C(=O)O; 4Abz = Nc1ccc(C(=O)O)cc1

Key:
[1] = Biodistribution in Daudi xenograft bearing mice; type: in vivo, mouse; details: female, CB-17 SCID, mouse, iv, total radioactivity, means ± SD; for tissue uptake at 6 h: 6h p.i.; for tissue uptake at 48 h / tissue to tissue ratio at 48 h: 48h p.i.; for tissue to tissue ratio at 48 h: n=4-5 animals
Description: The biodistribution of selected compounds was investigated in Daudi (human B-cell lymphoma) xenograft bearing female CB-17 SCID mice (6-8 weeks, Charles River, Sulzfeld, Germany), [29]. All animal experiments were performed in accordance with current animal welfare regulations in Germany (approval #55.2-1-54-2532-71-13).
Animals (n=4-5 per group) were injected intravenously with 5-10 MBq (0.08-0.11 nmol peptide per mouse) of the respective ^68Ga- and^ 177Lu-labeled CXCR4 ligands in PBS (100 µL) into the tail vein under isoflurane anesthesia. CXCR4-specificity of binding was determined by coinjection of 50 µg AMD3100 per mouse. The animals were sacrificed 1, 6 and 48h post injection (p.i.), and the organs of interest were dissected. The radioactivity was measured in weighted tissue samples using a γ-counter. Data are expressed in % ID/g tissue (mean ± SD).

[2] = molecular target: T1, human CXCR4 (hCXCR4) (Homo sapiens, UniProt P61073); experiment: Competition binding to hCXCR4, Jurkat cells, [125I]FC-131 as radioligand; details: Jurkat cells 400.000 cells/sample, means ± SD of min. three separate experiments
T1 construct: hCXCR4-expressing Jurkat human T-cell leukemia cells; endogenous in cells; host or cells: Jurkat human T-cell leukemia cells (whole cells)
Description: Experiments were performed in triplicate with n=3 per concentration in each experiment. IC50 values were calculated using GraphPad Prism 6.01 (Graph Pad Software, San Diego, USA).
Figure 2 Binding affinities (IC50 in nM) of the respective ^natGa-, ^natLu-, ^natY- and ^natBi-complexes of PentixaFor (entry 1), PentixaTher (entry 2) and a series of CPCR4-(blue) and iodoCPCR4-(black) derived analogs with modified linker structure (entries 3-14) to human CXCR4 (hCXCR4). […] Each experiment was performed in triplicate, and results are means ± SD from a minimum of three separate experiments. TEXT PRINTED IN THE PICTURE: 1: ^natGa-complex IC50 [nM]: 24.8 ± 2.5; ^natLu-complex IC50 [nM]: 41 ± 12; ^natY-complex IC50 [nM]: 40 ± 27 | 2: ^natGa-complex IC50 [nM]: 6.1 ± 1.5; ^natLu-complex IC50 [nM]: 14.6 ± 1.0; ^natY-complex IC50 [nM]: 20.4 ± 0.3; ^natBi-complex IC50 [nM]: 24.4 ± 3.7 | 3: ^natGa-complex IC50 [nM]: 282 ± 90; ^natLu-complex IC50 [nM]: 12.5 ± 3.2; ^natY-complex IC50 [nM]: 216 ± 33; ^natBi-complex IC50 [nM]: 27 ± 14 | 4: ^natGa-complex IC50 [nM]: 14.4 ± 0.3; ^natLu-complex IC50 [nM]: 28 ± 9; ^natY-complex IC50 [nM]: 83 ± 30 | 5: ^natLu-complex IC50 [nM]: 106 ± 10 | 6: ^natGa-complex IC50 [nM]: 7.9 ± 1.1; ^natLu-complex IC50 [nM]: 5.9 ± 0.3; ^natY-complex IC50 [nM]: 6.7 ± 1.2; ^natBi-complex IC50 [nM]: 14.5 ± 0.2 | 7: ^natGa-complex IC50 [nM]: 47 ± 8; ^natLu-complex IC50 [nM]: 39 ± 1; ^natY-complex IC50 [nM]: 43 ± 2 | 8: ^natGa-complex IC50 [nM]: 3.6 ± 0.7; ^natLu-complex IC50 [nM]: 3.5 ± 0.3; ^natY-complex IC50 [nM]: 4.1 ± 1.3; ^natBi-complex IC50 [nM]: 3.5 ± 0.4 | 9: ^natGa-complex IC50 [nM]: 8.9 ± 3.8; ^natLu-complex IC50 [nM]: 8.0 ± 3.1; ^natY-complex IC50 [nM]: 6.3 ± 2.5 | 10: ^natGa-complex IC50 [nM]: 2.4 ± 0.1; ^natLu-complex IC50 [nM]: 3.6 ± 1.1; ^natY-complex IC50 [nM]: 2.4 ± 0.2; ^natBi-complex IC50 [nM]: 38 ± 25 | 11: ^natGa-complex IC50 [nM]: 9.7 ± 2.8; ^natLu-complex IC50 [nM]: 5.4 ± 1.6; ^natY-complex IC50 [nM]: 8.7 ± 2.9 | 12: ^natGa-complex IC50 [nM]: 1.4 ± 0.2; ^natLu-complex IC50 [nM]: 2.1 ± 0.3; ^natY-complex IC50 [nM]: 2.1 ± 0.3; ^natBi-complex IC50 [nM]: 2.9 ± 0.1 | 13: ^natGa-complex IC50 [nM]: 0.4 ± 0.1; ^natLu-complex IC50 [nM]: 1.5 ± 0.1; ^natY-complex IC50 [nM]: 1.5 ± 0.1 | 14: ^natGa-complex IC50 [nM]: 2.6 ± 1.0; ^natLu-complex IC50 [nM]: 1.7 ± 0.6; ^natY-complex IC50 [nM]: 1.6 ± 0.5; ^natBi-complex IC50 [nM]: 1.8 ± 0.8

[3] = adrenals, i.v., n=4-5, read-out: Biodistribution adrenals
[4] = blood, i.v., n=4-5, read-out: Biodistribution blood
[5] = colon, i.v., n=4-5, read-out: Biodistribution colon
[6] = femur, i.v., n=4-5, read-out: Biodistribution femur
[7] = heart, i.v., n=4-5, read-out: Biodistribution heart
[8] = kidney, i.v., n=4-5, read-out: Biodistribution kidney
[9] = liver, i.v., n=4-5, read-out: Biodistribution liver
[10] = lung, i.v., n=4-5, read-out: Biodistribution lung
[11] = muscle, i.v., n=4-5, read-out: Biodistribution muscle
[12] = pancreas, i.v., n=4-5, read-out: Biodistribution pancreas
[13] = small intestine, i.v., n=4-5, read-out: Biodistribution small intestine
[14] = spleen, i.v., n=4-5, read-out: Biodistribution spleen
[15] = stomach, i.v., n=4-5, read-out: Biodistribution stomach
[16] = tumor (Daudi xenograft), i.v., n=4-5, read-out: Biodistribution tumor (Daudi xenograft)
[17] = natBi-complex, read-out: ^natBi-complex IC50 to hCXCR4
[18] = natGa-complex, read-out: ^natGa-complex IC50 to hCXCR4
[19] = natLu-complex, read-out: ^natLu-complex IC50 to hCXCR4
[20] = natY-complex, read-out: ^natY-complex IC50 to hCXCR4

T1 sequence (P61073 whole entry): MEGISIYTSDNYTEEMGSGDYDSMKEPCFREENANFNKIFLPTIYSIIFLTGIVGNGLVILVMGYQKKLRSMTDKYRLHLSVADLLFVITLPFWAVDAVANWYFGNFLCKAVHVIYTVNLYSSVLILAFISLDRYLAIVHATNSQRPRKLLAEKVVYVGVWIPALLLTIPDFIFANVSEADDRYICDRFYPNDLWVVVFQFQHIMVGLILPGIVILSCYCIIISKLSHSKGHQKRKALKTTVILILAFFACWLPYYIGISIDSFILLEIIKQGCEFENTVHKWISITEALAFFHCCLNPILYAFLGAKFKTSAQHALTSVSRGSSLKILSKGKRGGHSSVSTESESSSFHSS

tissue uptake at 6 h [1, 3]: 0.68 ± 0.21 %ID/g | tissue uptake at 48 h [1, 3]: 0.6 ± 0.12 %ID/g | tissue uptake at 6 h [1, 4]: 0.17 ± 0.09 %ID/g | tissue uptake at 48 h [1, 4]: 0.03 ± 0.01 %ID/g | tissue uptake at 1 h ([1]; brain, 1h p.i., tracer only, i.v., γ-counter, n=4-5, read-out: Biodistribution brain): 0.08 ± 0.01 %ID/g | tissue uptake at 6 h [1, 5]: 0.49 ± 0.2 %ID/g | tissue uptake at 48 h [1, 5]: 0.43 ± 0.3 %ID/g | tissue uptake at 6 h [1, 6]: 0.56 ± 0.23 %ID/g | tissue uptake at 48 h [1, 6]: 0.34 ± 0.08 %ID/g | tissue uptake at 6 h [1, 7]: 0.28 ± 0.05 %ID/g | tissue uptake at 48 h [1, 7]: 0.19 ± 0.02 %ID/g | tissue uptake at 6 h [1, 8]: 3.2 ± 0.45 %ID/g | tissue uptake at 48 h [1, 8]: 2.58 ± 0.69 %ID/g | tissue uptake at 6 h [1, 9]: 17.1 ± 3.09 %ID/g | tissue uptake at 48 h [1, 9]: 14.6 ± 2 %ID/g | tissue uptake at 6 h [1, 10]: 1.07 ± 0.26 %ID/g | tissue uptake at 48 h [1, 10]: 0.57 ± 0.04 %ID/g | tissue uptake at 6 h [1, 11]: 0.06 ± 0.01 %ID/g | tissue uptake at 48 h [1, 11]: 0.04 %ID/g | tissue uptake at 6 h [1, 12]: 0.11 ± 0.02 %ID/g | tissue uptake at 48 h [1, 12]: 0.09 ± 0.01 %ID/g | tissue uptake at 6 h [1, 13]: 0.24 ± 0.06 %ID/g | tissue uptake at 48 h [1, 13]: 0.16 ± 0.06 %ID/g | tissue uptake at 6 h [1, 14]: 2.95 ± 0.75 %ID/g | tissue uptake at 48 h [1, 14]: 2.72 ± 0.5 %ID/g | tissue uptake at 6 h [1, 15]: 0.25 ± 0.09 %ID/g | tissue uptake at 48 h [1, 15]: 0.14 ± 0.02 %ID/g | tissue uptake at 6 h [1, 16]: 12.5 ± 2.56 %ID/g | tissue uptake at 48 h [1, 16]: 8.11 ± 0.96 %ID/g | tissue to tissue ratio at 48 h ([1]; tumor / blood, read-out: Tumor/organ ratio t/blood): 320 ± 104 | tissue to tissue ratio at 48 h ([1]; tumor / colon, read-out: Tumor/organ ratio t/colon): 19 ± 13 | tissue to tissue ratio at 48 h ([1]; tumor / heart, read-out: Tumor/organ ratio t/heart): 42 ± 7 | tissue to tissue ratio at 48 h ([1]; tumor / kidney, read-out: Tumor/organ ratio t/kidney): 3.1 ± 0.9 | tissue to tissue ratio at 48 h ([1]; tumor / liver, read-out: Tumor/organ ratio t/liver): 0.6 ± 0.1 | tissue to tissue ratio at 48 h ([1]; tumor / lung, read-out: Tumor/organ ratio t/lung): 14 ± 2 | tissue to tissue ratio at 48 h ([1]; tumor / muscle, read-out: Tumor/organ ratio t/muscle): 226 ± 36 | tissue to tissue ratio at 48 h ([1]; tumor / small intestine, read-out: Tumor/organ ratio t/small intestine): 50 ± 20 | tissue to tissue ratio at 48 h ([1]; tumor / spleen, read-out: Tumor/organ ratio t/spleen): 3 ± 0.7 | tissue to tissue ratio at 48 h ([1]; tumor / stomach, read-out: Tumor/organ ratio t/stomach): 58 ± 12
Compound: C[C@@H](NC(=O)[C@@H](CCCNC(=N)N)NC(=O)CN1CCN(CC(=O)O)CCN(CC(=O)O)CCN(CC(=O)O)CC1)C(=O)Nc1ccc(C(=O)NCCC[C@@H]2C(=O)N[C@@H](CCCNC(=N)N)C(=O)N[C@@H](Cc3ccc4ccccc4c3)C(=O)NCC(=O)N[C@H](Cc3ccc(O)c(I)c3)C(=O)N2C)cc1 [[^177Lu]DOTA-r-a-ABA-iodoCPCR4, metal not drawn] (cyclo([2Nal]G[dTyr(3-I)][dNMeOrn]([4Abz-dA-dR-DOTA])R))

IC50 [2, 17]: 27 ± 14 nM | IC50 [2, 18]: 282 ± 90 nM | IC50 [2, 19]: 12.5 ± 3.2 nM | IC50 [2, 20]: 216 ± 33 nM
Compound: DOTA-ABA-iodoCPCR4 (head to tail) [entry 3]

IC50 [2, 17]: 24.4 ± 3.7 nM | IC50 [2, 18]: 6.1 ± 1.5 nM | IC50 [2, 19]: 14.6 ± 1 nM | IC50 [2, 20]: 20.4 ± 0.3 nM
Compound: DOTA-AMBS-iodoCPCR4 (head to tail) [entry 2, PentixaTher]
